Assay results: PubChem BioAssay AID230 (DTP/NCI, 2004)
Several values for one entry are separate records, joined by “and”; a condition that tells them apart may be missing. Equal entries are not always repeated. Inconclusive results and toxic doses are left out.

Tested on: C3H/He mice, Gardner lymphosarcoma 6C3HED ip, survival T/C
Assay: NCI In Vivo Anticancer Drug Screen. Data for tumor model Lymphosarcoma Gardner 6C3HED (intraperitoneal) in C3H/He mice
Conditions: higher = longer survival
Experimental: The antitumor activity of compounds was measured in mice bearing transplantable tumors. Survival or tumor size were measured and the results are expressed as the measurement made in the treated group (T) divided by the measurement made in the vehicle treated control group (C). The tumor model used in this assay is Lymphosarcoma Gardner 6C3HED (intraperitoneal) in C3H/He mice

[1] = endpoint: survival time, mean or median, dose: 12.5 mg/kg/injection, schedule: Q01DX010 (ip), vehicle: saline
[2] = endpoint: survival time, mean or median, dose: 25.0 mg/kg/injection, schedule: Q01DX010 (ip), vehicle: saline
[3] = endpoint: survival time, mean or median, dose: 50.0 mg/kg/injection, schedule: Q01DX010 (ip), vehicle: saline
[4] = endpoint: survival time, mean or median, dose: 10.0 mg/kg/injection, schedule: Q01DX010 (ip), vehicle: saline
[5] = endpoint: survival time, mean or median, dose: 20.0 mg/kg/injection, schedule: Q01DX010 (ip), vehicle: saline
[6] = endpoint: survival time, mean or median, dose: 4.0 mg/kg/injection, schedule: Q01DX010 (ip), vehicle: saline
[7] = endpoint: survival time, mean or median, dose: 16.0 mg/kg/injection, schedule: Q01DX010 (ip), vehicle: saline
[8] = endpoint: survival time, mean or median, dose: 3.13 mg/kg/injection, schedule: Q01DX010 (ip), vehicle: saline
[9] = endpoint: survival time, mean or median, dose: 6.25 mg/kg/injection, schedule: Q01DX010 (ip), vehicle: saline
[10] = endpoint: survival time, mean or median, dose: 100.0 mg/kg/injection, schedule: Q01DX010 (ip), vehicle: saline
[11] = endpoint: survival time, mean or median, dose: 2.5 mg/kg/injection, schedule: Q01DX010 (ip), vehicle: saline
[12] = endpoint: survival time, mean or median, dose: 5.0 mg/kg/injection, schedule: Q01DX010 (ip), vehicle: saline
[13] = endpoint: survival time, mean or median, dose: 62.5 mg/kg/injection, schedule: Q01DX010 (ip), vehicle: saline
[14] = endpoint: survival time, mean or median, dose: 125.0 mg/kg/injection, schedule: Q01DX010 (ip), vehicle: saline

COS(C)(=O)=O
T/C [1]: 119 % of control | T/C [2]: 300 % of control | T/C [3]: 300 % of control

CN(Cc1cnc2nc(N)nc(N)c2n1)c1c(Cl)cc(C(=O)NC(CCC(=O)O)C(=O)O)cc1Cl (centres undefined)
T/C [4]: 300 % of control | T/C [5]: 300 % of control | T/C (endpoint: survival time, mean or median, dose: 40.0 mg/kg/injection, schedule: Q01DX010 (ip), vehicle: saline): 300 % of control | T/C (endpoint: survival time, mean or median, dose: 80.0 mg/kg/injection, schedule: Q01DX010 (ip), vehicle: saline): 300 % of control

Nc1nc(F)nc2c1ncn2C1OC(CO)C(O)C1O (centres undefined)
T/C (endpoint: survival time, mean or median, dose: 0.5 mg/kg/injection, schedule: Q01DX010 (ip), vehicle: saline): 87 % of control | T/C (endpoint: survival time, mean or median, dose: 1.0 mg/kg/injection, schedule: Q01DX010 (ip), vehicle: saline): 87 % of control | T/C (endpoint: survival time, mean or median, dose: 250.0 micrograms/kg/injection, schedule: Q01DX010 (ip), vehicle: saline): 86 % of control

CCCCn1cnc2c(=S)nc[nH]c21
T/C [6]: 100 % of control | T/C (endpoint: survival time, mean or median, dose: 8.0 mg/kg/injection, schedule: Q01DX010 (ip), vehicle: saline): 93 % of control | T/C [7]: 90 % of control and 92 % of control

C[C@H]1C(=O)O[C@@H]2CCN3CC=C(COC(=O)[C@](C)(O)[C@@]1(C)O)[C@H]23
T/C [8]: 100 % of control and 107 % of control | T/C [9]: 93 % of control and 103 % of control | T/C [1]: 100 % of control and 103 % of control | T/C [2]: 111 % of control

CC(C)CC(NC(=O)C(O)C(N)Cc1ccccc1)C(=O)O (centres undefined)
T/C (endpoint: median survival time, dose: 2.5 mg/kg/injection, schedule: Q01DX005 (oral), vehicle: saline): 94 % of control | T/C (endpoint: median survival time, dose: 5.0 mg/kg/injection, schedule: Q01DX005 (oral), vehicle: saline): 95 % of control | T/C (endpoint: median survival time, dose: 10.0 mg/kg/injection, schedule: Q01DX005 (oral), vehicle: saline): 95 % of control

Cc1cc2nc3c(=O)[nH]c(=O)nc-3n(CC(O)C(O)C(O)C(O)CO)c2cc1C (centres undefined)
T/C [1]: 97 % of control | T/C [3]: 100 % of control | T/C [10]: 87 % of control and 100 % of control

CC(=O)Nc1ccc2nc3ccc(NC(C)=O)cc3[n+](-c3ccccc3)c2c1
T/C [1]: 107 % of control | T/C [2]: 107 % of control | T/C [10]: 89 % of control

CN(C)[C@@H]1C(=O)C(C(N)=O)=C(O)[C@@]2(O)C(=O)C3=C(O)c4c(O)cccc4C[C@H]3C[C@@H]12
T/C (endpoint: survival time, mean or median, dose: 3.75 mg/kg/injection, schedule: Q01DX010 (ip), vehicle: saline): 93 % of control | T/C (endpoint: survival time, mean or median, dose: 7.5 mg/kg/injection, schedule: Q01DX010 (ip), vehicle: saline): 90 % of control | T/C (endpoint: survival time, mean or median, dose: 15.0 mg/kg/injection, schedule: Q01DX010 (ip), vehicle: saline): 90 % of control

C=CC(CN1CC1)OC(C)=O (centres undefined)
T/C (endpoint: survival time, mean or median, dose: 2.0 mg/kg/injection, schedule: Q01DX010 (ip), vehicle: saline): 107 % of control | T/C [6]: 123 % of control

CCOC(=O)NP(=O)(N1CC1)N1CC1
T/C [11]: 100 % of control and 107 % of control | T/C [12]: 107 % of control and 117 % of control | T/C [4]: 157 % of control | T/C [5]: 92 % of control and 103 % of control

Nc1nc(=O)n(C2CC(O)C(CO)O2)cc1Br (centres undefined)
T/C [2]: 107 % of control | T/C [3]: 107 % of control | T/C [10]: 96 % of control and 107 % of control | T/C (endpoint: survival time, mean or median, dose: 200.0 mg/kg/injection, schedule: Q01DX010 (ip), vehicle: saline): 100 % of control and 107 % of control

COc1ccc2c(c1OC)C(=O)O[C@@H]2[C@H]1c2c(cc3c(c2OC)OCO3)CCN1C
T/C (endpoint: survival time, mean or median, dose: 31.3 mg/kg/injection, schedule: Q01DX010 (ip), vehicle: saline): 90 % of control and 107 % of control | T/C [13]: 100 % of control | T/C [14]: 92 % of control

Cc1cn(C2OC(CO)C(O)C2O)c(=O)[nH]c1=O (centres undefined)
T/C [13]: 100 % of control | T/C [14]: 96 % of control and 100 % of control | T/C (endpoint: survival time, mean or median, dose: 250.0 mg/kg/injection, schedule: Q01DX010 (ip), vehicle: saline): 100 % of control | T/C (endpoint: survival time, mean or median, dose: 500.0 mg/kg/injection, schedule: Q01DX010 (ip), vehicle: saline): 103 % of control

CN(C)c1ccc(/C=C/c2ccnc3ccccc23)cc1
T/C [7]: 90 % of control | T/C (endpoint: survival time, mean or median, dose: 32.0 mg/kg/injection, schedule: Q01DX010 (ip), vehicle: saline): 93 % of control

N#[N+]c1cnc([O-])[nH]c1=O
T/C (endpoint: survival time, mean or median, dose: 1.25 mg/kg/injection, schedule: Q01DX010 (ip), vehicle: saline): 123 % of control | T/C [11]: 150 % of control | T/C [12]: 106 % of control

CCN(CC)CCCC(C)Nc1c2ccc(Cl)cc2nc2ccc(OC)cc12 (centres undefined)
T/C [8]: 90 % of control | T/C [9]: 90 % of control | T/C [2]: 100 % of control | T/C [3]: 112 % of control

[N-]=[N+]=CC(=O)CCC(N)C(=O)O (centres undefined)
T/C (endpoint: survival time, mean or median, dose: 0.03 mg/kg/injection, schedule: Q01DX010 (ip), vehicle: saline): 100 % of control and 105 % of control | T/C (endpoint: survival time, mean or median, dose: 0.05 mg/kg/injection, schedule: Q01DX010 (ip), vehicle: saline): 100 % of control and 118 % of control | T/C (endpoint: survival time, mean or median, dose: 0.1 mg/kg/injection, schedule: Q01DX010 (ip), vehicle: saline): 118 % of control and 120 % of control

[I][Hg][CH2]C1COC([CH2][Hg][I])CO1 (centres undefined)
T/C (endpoint: survival time, mean or median, dose: 1.56 mg/kg/injection, schedule: Q01DX010 (ip), vehicle: saline): 93 % of control | T/C [8]: 100 % of control

CCC(=O)O[C@H]1CC[C@H]2[C@@H]3CCC4=CC(=O)CC[C@]4(C)[C@H]3CC[C@]12C
T/C (endpoint: survival time, mean or median, dose: 62.5 mg/kg/injection, schedule: Q01DX010 (sc), vehicle: steriod suspending solution): 90 % of control | T/C (endpoint: survival time, mean or median, dose: 125.0 mg/kg/injection, schedule: Q01DX010 (sc), vehicle: steriod suspending solution): 90 % of control | T/C (endpoint: survival time, mean or median, dose: 250.0 mg/kg/injection, schedule: Q01DX010 (sc), vehicle: steriod suspending solution): 96 % of control | T/C (endpoint: survival time, mean or median, dose: 500.0 mg/kg/injection, schedule: Q01DX010 (sc), vehicle: steriod suspending solution): 100 % of control
